Reference: the kinase profiling compilation of Christmann-Franck et al. (2016)

Legend:
Assay in all cases: KINOMEscan competition binding
Conditions in all cases: compound 10.0 µM
ALK (human) = ALK (human) (UniProt Q9UM73)
BMPR1A (human) = BMPR1A (human) (UniProt P36894)
BRAF (human) = BRAF (human) (UniProt P15056)
CDK3 (human) = CDK3 (human) (UniProt Q00526)
CHEK1 (human) = CHEK1 (human) (UniProt O14757)
CIT (human) = CIT (human) (UniProt O14578)
CPK1 (P.falciparum) = system: CPK1 (P.falciparum)
CSF1R (human) = CSF1R (human) (UniProt P07333)
DCLK3 (human) = DCLK3 (human) (UniProt Q9C098)
EPHB2 (human) = EPHB2 (human) (UniProt P29323)
EPHB3 (human) = EPHB3 (human) (UniProt P54753)
EPHB4 (human) = EPHB4 (human) (UniProt P54760)
FES (human) = FES (human) (UniProt P07332)
FGFR3 (human) = FGFR3 (human) (UniProt P22607)
FLT4 (human) = FLT4 (human) (UniProt P35916)
INSRR (human) = INSRR (human) (UniProt P14616)
LIMK1 (human) = LIMK1 (human) (UniProt P53667)
MAP2K5 (human) = MAP2K5 (human) (UniProt Q13163)
MAP3K7 (human) = MAP3K7 (human) (UniProt O43318)
MAP4K2 (human) = MAP4K2 (human) (UniProt Q12851)
MAPK13 (human) = MAPK13 (human) (UniProt O15264)
MARK2 (human) = MARK2 (human) (UniProt Q7KZI7)
Chain of MARK2 (human) (Q7KZI7 whole entry, looked up): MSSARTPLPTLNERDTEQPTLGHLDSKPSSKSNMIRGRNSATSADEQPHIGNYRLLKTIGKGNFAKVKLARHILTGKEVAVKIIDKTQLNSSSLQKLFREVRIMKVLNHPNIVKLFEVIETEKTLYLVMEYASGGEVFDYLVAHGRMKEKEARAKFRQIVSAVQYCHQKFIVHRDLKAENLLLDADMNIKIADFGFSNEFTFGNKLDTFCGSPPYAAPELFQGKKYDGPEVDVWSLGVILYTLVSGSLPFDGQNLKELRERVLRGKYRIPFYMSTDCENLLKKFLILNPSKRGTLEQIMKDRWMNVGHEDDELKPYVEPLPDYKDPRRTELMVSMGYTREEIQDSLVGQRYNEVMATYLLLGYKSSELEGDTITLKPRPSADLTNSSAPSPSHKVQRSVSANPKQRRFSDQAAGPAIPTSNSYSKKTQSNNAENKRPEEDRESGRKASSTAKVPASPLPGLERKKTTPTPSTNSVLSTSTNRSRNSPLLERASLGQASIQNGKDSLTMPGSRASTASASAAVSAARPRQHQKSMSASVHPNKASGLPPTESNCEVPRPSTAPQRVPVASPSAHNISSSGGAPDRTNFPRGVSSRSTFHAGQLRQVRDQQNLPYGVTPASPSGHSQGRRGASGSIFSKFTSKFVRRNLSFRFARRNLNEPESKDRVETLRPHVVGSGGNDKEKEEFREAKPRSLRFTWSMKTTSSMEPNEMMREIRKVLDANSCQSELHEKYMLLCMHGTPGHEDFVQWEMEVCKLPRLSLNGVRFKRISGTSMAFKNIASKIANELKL

MET (human) = MET (human) (UniProt P08581)
Chain of MET (human) (P08581 whole entry, looked up): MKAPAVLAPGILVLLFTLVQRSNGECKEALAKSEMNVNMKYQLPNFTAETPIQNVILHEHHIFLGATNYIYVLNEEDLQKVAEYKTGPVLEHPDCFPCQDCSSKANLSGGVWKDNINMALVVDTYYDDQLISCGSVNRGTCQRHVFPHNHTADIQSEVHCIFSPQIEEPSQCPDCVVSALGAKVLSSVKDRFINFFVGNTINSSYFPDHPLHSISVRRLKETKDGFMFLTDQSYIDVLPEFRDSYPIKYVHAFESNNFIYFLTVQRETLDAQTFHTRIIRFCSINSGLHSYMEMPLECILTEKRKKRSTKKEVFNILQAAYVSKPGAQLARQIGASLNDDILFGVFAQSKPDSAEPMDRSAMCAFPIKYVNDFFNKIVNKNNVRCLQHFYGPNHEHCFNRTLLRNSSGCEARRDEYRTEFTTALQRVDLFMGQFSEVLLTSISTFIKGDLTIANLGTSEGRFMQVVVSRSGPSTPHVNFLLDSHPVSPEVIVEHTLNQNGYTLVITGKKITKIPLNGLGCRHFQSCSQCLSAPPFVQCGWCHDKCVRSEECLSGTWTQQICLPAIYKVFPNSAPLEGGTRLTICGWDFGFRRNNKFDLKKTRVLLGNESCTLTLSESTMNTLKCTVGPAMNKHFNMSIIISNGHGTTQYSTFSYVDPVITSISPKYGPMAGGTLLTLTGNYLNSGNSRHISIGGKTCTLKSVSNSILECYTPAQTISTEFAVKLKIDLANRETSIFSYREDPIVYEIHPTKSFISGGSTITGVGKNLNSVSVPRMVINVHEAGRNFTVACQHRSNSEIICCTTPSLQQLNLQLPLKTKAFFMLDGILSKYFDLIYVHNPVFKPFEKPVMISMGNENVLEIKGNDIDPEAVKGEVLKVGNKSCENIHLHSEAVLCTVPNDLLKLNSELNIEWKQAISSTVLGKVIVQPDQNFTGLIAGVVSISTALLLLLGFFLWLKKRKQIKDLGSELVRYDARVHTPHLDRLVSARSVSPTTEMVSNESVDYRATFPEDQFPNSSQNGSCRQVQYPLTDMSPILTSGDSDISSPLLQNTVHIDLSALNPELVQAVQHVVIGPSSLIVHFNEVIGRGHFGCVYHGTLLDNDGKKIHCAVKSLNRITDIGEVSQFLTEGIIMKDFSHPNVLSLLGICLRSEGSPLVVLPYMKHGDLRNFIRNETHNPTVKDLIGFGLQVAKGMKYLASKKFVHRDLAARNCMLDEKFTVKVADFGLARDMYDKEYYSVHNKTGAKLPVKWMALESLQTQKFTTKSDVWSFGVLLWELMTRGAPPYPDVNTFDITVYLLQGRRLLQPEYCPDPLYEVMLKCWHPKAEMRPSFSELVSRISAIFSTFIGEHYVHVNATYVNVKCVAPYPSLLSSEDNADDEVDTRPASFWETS

MLTK (human) = MLTK (human) (UniProt Q9NYL2)
NTRK3 (human) = NTRK3 (human) (UniProt Q16288)
PHKG1 (human) = PHKG1 (human) (UniProt Q16816)
PHKG2 (human) = PHKG2 (human) (UniProt P15735)
PIM3 (human) = PIM3 (human) (UniProt Q86V86)
PKN2 (human) = PKN2 (human) (UniProt Q16513)
Chain of PKN2 (human) (Q16513 whole entry, looked up): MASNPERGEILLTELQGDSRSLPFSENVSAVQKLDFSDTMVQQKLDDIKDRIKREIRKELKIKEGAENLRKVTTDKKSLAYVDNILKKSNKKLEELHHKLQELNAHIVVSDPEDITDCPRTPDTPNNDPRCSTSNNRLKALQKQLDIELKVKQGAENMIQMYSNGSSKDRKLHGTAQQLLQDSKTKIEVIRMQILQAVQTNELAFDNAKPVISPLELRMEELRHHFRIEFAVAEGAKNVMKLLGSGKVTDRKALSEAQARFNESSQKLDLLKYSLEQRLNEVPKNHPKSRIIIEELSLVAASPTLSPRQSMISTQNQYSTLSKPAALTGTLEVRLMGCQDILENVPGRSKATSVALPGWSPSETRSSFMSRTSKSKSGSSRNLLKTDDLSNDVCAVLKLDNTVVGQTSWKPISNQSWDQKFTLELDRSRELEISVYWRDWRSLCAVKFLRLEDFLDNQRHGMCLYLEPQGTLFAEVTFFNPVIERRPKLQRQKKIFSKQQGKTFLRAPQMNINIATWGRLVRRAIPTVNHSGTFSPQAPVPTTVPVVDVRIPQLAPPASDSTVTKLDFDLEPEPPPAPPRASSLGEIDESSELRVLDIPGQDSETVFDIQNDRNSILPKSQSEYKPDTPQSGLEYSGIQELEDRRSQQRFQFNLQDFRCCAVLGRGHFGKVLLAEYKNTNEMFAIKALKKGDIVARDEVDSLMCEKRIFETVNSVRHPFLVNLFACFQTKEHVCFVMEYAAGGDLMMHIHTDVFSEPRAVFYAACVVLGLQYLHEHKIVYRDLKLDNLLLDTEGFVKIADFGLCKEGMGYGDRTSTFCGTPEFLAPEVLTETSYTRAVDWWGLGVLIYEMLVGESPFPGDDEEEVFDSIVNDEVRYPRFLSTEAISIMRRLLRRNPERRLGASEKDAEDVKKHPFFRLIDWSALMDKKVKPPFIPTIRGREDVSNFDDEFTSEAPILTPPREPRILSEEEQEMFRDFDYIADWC

PRKCQ (human) = PRKCQ (human) (UniProt Q04759)
PRKX (human) = PRKX (human) (UniProt P51817)
[1] = system: RET (human), P07949 [V804M]
Chain of RET (human), P07949 [V804M] (P07949 whole entry V804M, looked up): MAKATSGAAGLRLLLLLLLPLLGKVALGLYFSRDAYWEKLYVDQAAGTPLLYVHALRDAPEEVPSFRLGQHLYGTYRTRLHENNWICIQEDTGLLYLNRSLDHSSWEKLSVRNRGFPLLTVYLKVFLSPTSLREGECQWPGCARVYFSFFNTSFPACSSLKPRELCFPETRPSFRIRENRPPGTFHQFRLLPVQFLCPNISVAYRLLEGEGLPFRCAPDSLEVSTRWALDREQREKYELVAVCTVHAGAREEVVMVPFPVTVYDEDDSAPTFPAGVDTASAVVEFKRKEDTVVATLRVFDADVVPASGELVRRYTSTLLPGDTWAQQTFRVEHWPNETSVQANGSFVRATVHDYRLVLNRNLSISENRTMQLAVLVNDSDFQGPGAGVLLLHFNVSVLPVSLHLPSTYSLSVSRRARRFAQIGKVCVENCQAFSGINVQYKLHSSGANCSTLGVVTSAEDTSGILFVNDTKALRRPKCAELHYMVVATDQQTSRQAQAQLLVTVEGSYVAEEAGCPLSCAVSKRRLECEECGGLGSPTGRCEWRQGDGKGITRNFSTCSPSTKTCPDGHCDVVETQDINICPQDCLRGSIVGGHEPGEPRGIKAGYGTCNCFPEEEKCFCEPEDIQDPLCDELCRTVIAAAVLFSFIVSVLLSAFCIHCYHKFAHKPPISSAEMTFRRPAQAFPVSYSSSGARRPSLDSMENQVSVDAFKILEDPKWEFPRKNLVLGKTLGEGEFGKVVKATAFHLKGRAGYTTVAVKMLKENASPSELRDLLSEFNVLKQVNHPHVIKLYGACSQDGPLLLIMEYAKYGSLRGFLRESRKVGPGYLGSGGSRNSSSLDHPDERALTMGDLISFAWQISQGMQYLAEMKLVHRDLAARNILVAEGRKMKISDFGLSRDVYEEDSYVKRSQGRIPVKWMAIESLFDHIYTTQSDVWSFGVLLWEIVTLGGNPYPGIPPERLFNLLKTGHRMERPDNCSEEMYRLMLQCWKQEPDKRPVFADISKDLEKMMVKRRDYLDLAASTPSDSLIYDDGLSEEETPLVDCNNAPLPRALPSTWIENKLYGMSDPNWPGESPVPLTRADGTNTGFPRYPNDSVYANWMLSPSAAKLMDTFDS

RPS6KA1 KD1 (human) = RPS6KA1 KD1 (human) (UniProt Q15418)
RPS6KA4 KD2 (human) = RPS6KA4 KD2 (human) (UniProt O75676)
SRPK1 (human) = SRPK1 (human) (UniProt Q96SB4)
STK24 (human) = STK24 (human) (UniProt Q9Y6E0)
Chain of STK24 (human) (Q9Y6E0 whole entry, looked up): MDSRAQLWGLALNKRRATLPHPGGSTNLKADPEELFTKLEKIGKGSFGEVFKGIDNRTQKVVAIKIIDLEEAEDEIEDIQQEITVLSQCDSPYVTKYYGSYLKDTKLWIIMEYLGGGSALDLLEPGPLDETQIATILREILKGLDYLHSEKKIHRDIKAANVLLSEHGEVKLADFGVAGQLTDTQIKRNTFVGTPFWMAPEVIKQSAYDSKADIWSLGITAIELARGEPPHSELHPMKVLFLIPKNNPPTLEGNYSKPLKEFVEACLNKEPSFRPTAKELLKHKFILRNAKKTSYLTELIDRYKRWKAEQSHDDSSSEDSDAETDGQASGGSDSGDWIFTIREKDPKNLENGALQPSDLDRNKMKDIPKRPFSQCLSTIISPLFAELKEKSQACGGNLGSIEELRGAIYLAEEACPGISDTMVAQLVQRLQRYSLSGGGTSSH

STK3 (human) = STK3 (human) (UniProt Q13188)
STK36 (human) = STK36 (human) (UniProt Q9NRP7)
TEC (human) = TEC (human) (UniProt P42680)
TNK1 (human) = TNK1 (human) (UniProt Q13470)
VRK2 (human) = VRK2 (human) (UniProt Q86Y07)

O=c1cc(N2CCOCC2)oc2c(-c3cccc4c3sc3ccccc34)cccc12
kinase still bound, per cent of control (ALK (human)): 100% | kinase still bound, per cent of control (BMPR1A (human)): 94% | kinase still bound, per cent of control (BRAF (human)): 100% | kinase still bound, per cent of control (CDK3 (human)): 100% | kinase still bound, per cent of control (CHEK1 (human)): 100% | kinase still bound, per cent of control (CIT (human)): 85% | kinase still bound, per cent of control (CPK1 (P.falciparum)): 98% | kinase still bound, per cent of control (CSF1R (human)): 100% | kinase still bound, per cent of control (DCLK3 (human)): 100% | kinase still bound, per cent of control (EPHB2 (human)): 91% | kinase still bound, per cent of control (EPHB3 (human)): 100% | kinase still bound, per cent of control (EPHB4 (human)): 87% | kinase still bound, per cent of control (FES (human)): 93% | kinase still bound, per cent of control (FGFR3 (human)): 80% | kinase still bound, per cent of control (FLT4 (human)): 92% | kinase still bound, per cent of control (INSRR (human)): 100% | kinase still bound, per cent of control (LIMK1 (human)): 100% | kinase still bound, per cent of control (MAP2K5 (human)): 98% | kinase still bound, per cent of control (MAP3K7 (human)): 100% | kinase still bound, per cent of control (MAP4K2 (human)): 100% | kinase still bound, per cent of control (MAPK13 (human)): 99% | kinase still bound, per cent of control (MARK2 (human)): 90% | kinase still bound, per cent of control (MET (human)): 63% | kinase still bound, per cent of control (MLTK (human)): 93% | kinase still bound, per cent of control (NTRK3 (human)): 74% | kinase still bound, per cent of control (PHKG1 (human)): 100% | kinase still bound, per cent of control (PHKG2 (human)): 99% | kinase still bound, per cent of control (PIM3 (human)): 65% | kinase still bound, per cent of control (PKN2 (human)): 86% | kinase still bound, per cent of control (PRKCQ (human)): 100% | kinase still bound, per cent of control (PRKX (human)): 89% | kinase still bound, per cent of control [1]: 95% | kinase still bound, per cent of control (RPS6KA1 KD1 (human)): 100% | kinase still bound, per cent of control (RPS6KA4 KD2 (human)): 100% | kinase still bound, per cent of control (SRPK1 (human)): 100% | kinase still bound, per cent of control (STK24 (human)): 86% | kinase still bound, per cent of control (STK3 (human)): 85% | kinase still bound, per cent of control (STK36 (human)): 100% | kinase still bound, per cent of control (TEC (human)): 89% | kinase still bound, per cent of control (TNK1 (human)): 100% | kinase still bound, per cent of control (VRK2 (human)): 100%

CCN1CCN(C(=O)Cc2ccc(Nc3ncc(F)c(Nc4ccc(C(=O)Nc5ccccc5Cl)cc4)n3)cc2)CC1
kinase still bound, per cent of control (ALK (human)): 22% | kinase still bound, per cent of control (BMPR1A (human)): 3.3% | kinase still bound, per cent of control (BRAF (human)): 70% | kinase still bound, per cent of control (CDK3 (human)): 92% | kinase still bound, per cent of control (CHEK1 (human)): 100% | kinase still bound, per cent of control (CIT (human)): 27% | kinase still bound, per cent of control (CPK1 (P.falciparum)): 29% | kinase still bound, per cent of control (CSF1R (human)): 6.5% | kinase still bound, per cent of control (DCLK3 (human)): 80% | kinase still bound, per cent of control (EPHB2 (human)): 93% | kinase still bound, per cent of control (EPHB3 (human)): 78% | kinase still bound, per cent of control (EPHB4 (human)): 76% | kinase still bound, per cent of control (FES (human)): 48% | kinase still bound, per cent of control (FGFR3 (human)): 20% | kinase still bound, per cent of control (FLT4 (human)): 7.6% | kinase still bound, per cent of control (INSRR (human)): 63% | kinase still bound, per cent of control (LIMK1 (human)): 9.8% | kinase still bound, per cent of control (MAP2K5 (human)): 9.8% | kinase still bound, per cent of control (MAP3K7 (human)): 2.9% | kinase still bound, per cent of control (MAP4K2 (human)): 51% | kinase still bound, per cent of control (MAPK13 (human)): 100% | kinase still bound, per cent of control (MARK2 (human)): 50% | kinase still bound, per cent of control (MET (human)): 8.6% | kinase still bound, per cent of control (MLTK (human)): 2.9% | kinase still bound, per cent of control (NTRK3 (human)): 78% | kinase still bound, per cent of control (PHKG1 (human)): 82% | kinase still bound, per cent of control (PHKG2 (human)): 42% | kinase still bound, per cent of control (PIM3 (human)): 67% | kinase still bound, per cent of control (PKN2 (human)): 100% | kinase still bound, per cent of control (PRKCQ (human)): 74% | kinase still bound, per cent of control (PRKX (human)): 76% | kinase still bound, per cent of control [1]: 4.6% | kinase still bound, per cent of control (RPS6KA1 KD1 (human)): 45% | kinase still bound, per cent of control (RPS6KA4 KD2 (human)): 100% | kinase still bound, per cent of control (SRPK1 (human)): 1.9% | kinase still bound, per cent of control (STK24 (human)): 32% | kinase still bound, per cent of control (STK3 (human)): 100% | kinase still bound, per cent of control (STK36 (human)): 2.1% | kinase still bound, per cent of control (TEC (human)): 42% | kinase still bound, per cent of control (TNK1 (human)): 1.3% | kinase still bound, per cent of control (VRK2 (human)): 100%

COc1ccc(N(C(=O)Oc2c(C)cccc2C)c2ccnc(Nc3ccc(N4CCN(C)CC4)cc3)n2)c(OC)c1
kinase still bound, per cent of control (ALK (human)): 0.35% | kinase still bound, per cent of control (BMPR1A (human)): 0.1% | kinase still bound, per cent of control (BRAF (human)): 88% | kinase still bound, per cent of control (CDK3 (human)): 100% | kinase still bound, per cent of control (CHEK1 (human)): 100% | kinase still bound, per cent of control (CIT (human)): 3.8% | kinase still bound, per cent of control (CPK1 (P.falciparum)): 5% | kinase still bound, per cent of control (CSF1R (human)): 0.1% | kinase still bound, per cent of control (DCLK3 (human)): 100% | kinase still bound, per cent of control (EPHB2 (human)): 0% | kinase still bound, per cent of control (EPHB3 (human)): 0% | kinase still bound, per cent of control (EPHB4 (human)): 0% | kinase still bound, per cent of control (FES (human)): 0.35% | kinase still bound, per cent of control (FGFR3 (human)): 1% | kinase still bound, per cent of control (FLT4 (human)): 16% | kinase still bound, per cent of control (INSRR (human)): 100% | kinase still bound, per cent of control (LIMK1 (human)): 0% | kinase still bound, per cent of control (MAP2K5 (human)): 0.55% | kinase still bound, per cent of control (MAP3K7 (human)): 57% | kinase still bound, per cent of control (MAP4K2 (human)): 1.6% | kinase still bound, per cent of control (MAPK13 (human)): 100% | kinase still bound, per cent of control (MARK2 (human)): 87% | kinase still bound, per cent of control (MET (human)): 3.9% | kinase still bound, per cent of control (MLTK (human)): 24% | kinase still bound, per cent of control (NTRK3 (human)): 100% | kinase still bound, per cent of control (PHKG1 (human)): 12% | kinase still bound, per cent of control (PHKG2 (human)): 100% | kinase still bound, per cent of control (PIM3 (human)): 92% | kinase still bound, per cent of control (PKN2 (human)): 19% | kinase still bound, per cent of control (PRKCQ (human)): 21% | kinase still bound, per cent of control (PRKX (human)): 41% | kinase still bound, per cent of control [1]: 66% | kinase still bound, per cent of control (RPS6KA1 KD1 (human)): 58% | kinase still bound, per cent of control (RPS6KA4 KD2 (human)): 100% | kinase still bound, per cent of control (SRPK1 (human)): 23% | kinase still bound, per cent of control (STK24 (human)): 52% | kinase still bound, per cent of control (STK3 (human)): 23% | kinase still bound, per cent of control (STK36 (human)): 0.95% | kinase still bound, per cent of control (TEC (human)): 3.7% | kinase still bound, per cent of control (TNK1 (human)): 0% | kinase still bound, per cent of control (VRK2 (human)): 100%
